Patent US10533164B2, “Mutant sialidase having trans-sialidase activity for use in production of sialylated glycans” (priority 2013, dated 2020)
Residue numbers refer to the chain shown, from its start. In names and notes the source's numbering stands.

Assays:
[1] = tested on: Bifidobacterium lactis (HN019, DGCC2013); test: Bacterial growth on sialylated glycans; type: cell-based; details: B. lactis; substrate 10 g/L in MRS-medium; average of 3 replicates
[2] = tested on: Bifidobacterium longum infantis (DGCC 2238); test: Bacterial growth on sialylated glycans; type: cell-based; details: B. infantis 2238; substrate 10 g/L in MRS-medium; average of 3 replicates
[3] = tested on: Lactobacillus acidophilus (NCFM, ATCC 700396); test: Bacterial growth on sialylated glycans; type: cell-based; details: L. acidophilus; substrate 10 g/L in MRS-medium; average of 3 replicates
[4] = tested on: Clostridium perfringens (ATCC 13124); type: cell-based; details: C. perfringens; substrate 10 g/L in MRS-medium; average of 3 replicates
[5] = tested on: Bifidobacterium longum (BI-05, DGCC 9917); test: Bacterial growth on sialylated glycans; type: cell-based; details: B. longum 9917; substrate 10 g/L in MRS-medium; average of 3 replicates
[6] = tested on: Bifidobacterium longum longum (DGCC 232); test: Bacterial growth on sialylated glycans; type: cell-based; details: B. longum 232; for Area under the growth curve: substrate 10 g/L in MRS-medium, average of 3 replicates
[7] = tested on: Bifidobacterium longum infantis (DGCC 233); test: Bacterial growth on sialylated glycans; type: cell-based; details: B. infantis 233; for Area under the growth curve: substrate 10 g/L in MRS-medium, average of 3 replicates
[8] = tested on: group of probiotic strains; test: Bacterial growth on sialylated glycans, probiotic strains as a group; type: cell-based
[9] = tested on: Bifidobacterium longum infantis (DGCC 1497); test: Bacterial growth on sialylated glycans; type: cell-based; details: B. infantis 1497; for Area under the growth curve: substrate 10 g/L in MRS-medium, average of 3 replicates
[10] = Trans-sialidase activity assay (fluorescence-based); type: biochemical; details: for trans-sialidase activity relative to Tr6 parent (product formation, FIG. 4): mutants from shake flask cultures, cGMP donor, MU-Gal acceptor
Description: The invention provides a method for assaying the mutant trans-sialidase of the invention, that may for example be obtained by recombinant expression. Example 2.1 describes a fluorescence-based assay employing cGMP-bound sialic acid (for example 1 mM) as donor substrate and methylumbelliferyl-β-D-galactopyranoside (MU-Gal) as the acceptor (for example 0.5 mM), where the reaction is performed in a 50 mM phosphate-citrate (pH 6) at 30° C.
Trans-sialidase activity was assayed as described previously but with the following modifications. Reactions were performed in 50 mM phosphate-citrate (pH 6) at 30° C. using 2.9 μg/mL enzyme. The assay employed 1 mM cGMP-bound sialic acid as donor substrate and MU-Gal as the acceptor. MU-Gal at 0.5 mM was the highest final concentration to be tested due to its low solubility in aqueous solution. A solution of 87 mM MU-Gal in DMSO was diluted to 2 mM in 50 mM phosphate-citrate buffer (pH 6) immediately before preparing the reactions. When assaying crude enzyme preparations from P. pastoris, a background signal was observed, and attributed to cleavage of MU-Gal by endogenous β-galactosidase. This background signal could be removed by washing the column eight times with 440 μL of 5 mM HCl after sample application without desorption of the sialylated product and this was therefore done routinely.
To assess the performance of the mutant enzymes, they were produced by recombinant expression in P. pastoris, transformed with the respective mutant gene, by growth in shake flask cultures. The trans-sialidase activity of the expressed mutant enzymes was measured with a fluorescence-based assay using cGMP as sialic acid donor and methylumbelliferyl-β-D-galactopyranoside (MU-Gal) as acceptor (FIG. 4). As the detected product is a measure of both the trans-sialidase activity (product formation) and hydrolase activity (product degradation) the assay provides an effective screen for mutants having a higher trans-sialidase to hydrolase activity ratio.

[11] = Sialidase (hydrolase) activity assay; type: biochemical; details: substrate pNP-Neu5Ac; compared with Tr6
Description: Sialidase activity was measured in a reaction containing 50 mM phosphate-citrate buffer (pH 7), 0.75 mM pNP-NeuAc and 3 μg/mL sialidase enzyme. Reactions were initiated by addition of substrate and followed spectrophotometrically at 410 nm at 30° C. pH 7 was chosen to enable detection of released pNP in a continuous assay. Reaction rates were normalized as % of the activity of the Tr6 parent enzyme. For measurement of hydrolysis of natural substrates, the assay was performed with either 1 mM 3′-sialyllactose, 1 mM 6′-sialyllactose or 1 mM cGMP-bound sialic acid in 50 mM phosphate-citrate buffer (pH 5) using 1 μg/mL enzyme. Reactions were started by addition of enzyme and stopped by adding H2SO4 to 45 mM final concentration. Quantification of free sialic acid was performed using a 2-thiobarbituric acid assay with the modification that butanol extraction was substituted with mixing with dimethyl sulfoxide (DMSO).

SA-α-Glc-1,4-α-Glc [S-maltose]
Area under the growth curve [1]: 102 ± 8 OD600 × min
Area under the growth curve [2]: 158 ± 24 OD600 × min
Area under the growth curve [3]: 193 ± 12 OD600 × min
Area under the growth curve [4]: 844 ± 99 OD600 × min
Area under the growth curve [5]: 101 ± 6 OD600 × min
Area under the growth curve [6]: 122 ± 31 OD600 × min
Area under the growth curve [7]: 30 ± 4 OD600 × min
growth promotion (in words) [8]: did not appear to promote growth

SA-α-Gal-1,4-β-Fru [S-lactulose]
Area under the growth curve [1]: 122 ± 18 OD600 × min
Area under the growth curve [2]: 269 ± 20 OD600 × min
Area under the growth curve [3]: 128 ± 2 OD600 × min
Area under the growth curve [4]: 541 ± 17 OD600 × min
Area under the growth curve [5]: 34 ± 14 OD600 × min
Area under the growth curve [6]: 134 ± 19 OD600 × min
Area under the growth curve [7]: 109 ± 20 OD600 × min
Area under the growth curve [9]: 34 ± 2 OD600 × min

CC(=O)NC1C(O)CC(OC2C(O)C(CO)OC(OCC3OC(O)C(O)C(O)C3O)C2O)(C(=O)O)OC1C(O)C(O)CO (stereo not drawn) [S-melibiose, SA-α-Gal-1,6-α-Glc]
Area under the growth curve [2]: 302 ± 2 OD600 × min
Area under the growth curve [3]: 192 ± 4 OD600 × min
Area under the growth curve [5]: 70 ± 8 OD600 × min
Area under the growth curve [6]: 104 ± 17 OD600 × min
Area under the growth curve [7]: 14 ± 6 OD600 × min
growth promotion (in words) [8]: did not appear to promote growth

SA-α-Fuc [S-fucose]
Area under the growth curve [1]: 192 ± 27 OD600 × min
Area under the growth curve [2]: 285 ± 15 OD600 × min
Area under the growth curve [3]: 188 ± 18 OD600 × min
Area under the growth curve [4]: 811 ± 48 OD600 × min
Area under the growth curve [5]: 114 ± 15 OD600 × min
growth promotion (in words) [6]: promoted growth
Area under the growth curve [6]: 192 ± 20 OD600 × min
growth promotion (in words) [7]: promoted growth
Area under the growth curve [7]: 71 ± 6 OD600 × min
growth promotion (in words) [9]: promoted growth
Area under the growth curve [9]: 149 ± 2 OD600 × min

B1: Tr6 P98A: Tr6 mutant, reversion of mutation P98A (protein)
chain: LAPGSSRVELFKRKNSTVPFEESNGTIRERVVHSFRLPTIVNVDGVMVAIADARYETSFDNSFIETAVKYSVDDGATWNTQIAIKNSRASSVSRVVDATVIVKGNKLYILVGSFNKTRNYWTQHRDGSDWEPLLVVGEVTKSAANGKTTATISWGKPVSLKPLFPAEFDGILTKEFVGGVGAAIVASNGNLVYPVQIADMGGRVFTKIMYSEDDGNTWKFAEGRSKFGCSEPAVLEWEGKLIINNRVDYNRRLVYESSDMGKTWVEALGTLSHVWTNSPTSNQPDCQSSFVAVTIEGKRVMLFTHPLNLKGRWMRDRLHLWMTDNQRIFDVGQISIGDENSGYSSVLYKDDKLYSLHEINTNDVYSLVFVRLIGELQLMKSVVRTWKEEDNHLASICTPVVPATPPSKGACGAAVPTAGLVGFLSHSANGSVWEDVYRCVDANVANAERVPNGLKFNGVGGGAVWPVARQGQTRRYQFANYRFTLVATVTIDELPKGTSPLLGAGLEGPGDAKLLGLSYDKNRQWRPLYGAAPASPTGSWELHKKYHVVLTMADRQGSVYVDGQPLAGSGNTVVRGATLPDISHFYIGGPRSKGAPTDSRVTVTNVVLYNRRLNSSEIRTLFLSQDMIGTDGGAGTAA
trans-sialidase activity relative to Tr6 parent (product formation, FIG. 4) [10]: reduction in trans-sialidase activity

B2: Tr6 Y249G: Tr6 mutant, reversion of mutation Y249G (protein)
chain: B1 chain with A98P, Y249G
trans-sialidase activity relative to Tr6 parent (product formation, FIG. 4) [10]: reduction in trans-sialidase activity

B3: Tr6 D363E: Tr6 sialidase mutant with amino acid change D363E (protein)
chain: B1 chain with A98P, D363E
trans-sialidase activity relative to Tr6 parent (product formation, FIG. 4) [10]: enhanced trans-sialidase activity
trans-sialylated product yield (maximum product formation, FIG. 5B) ([10]; purified enzyme from 5 L fermentor, time course, compared with Tr6): similarly low product formation profile as Tr6
hydrolase activity (FIG. 5A) [11]: reduced hydrolase activity
